pIC50: −log10 of the molar value.
What follows are compounds tested on HBsAg (assay: HBsAg assay (chemiluminescence immunoassay of secreted HBsAg in HepG2.2.15 culture supernatant)). Conditions: HBsAg secretion reduced by 50% vs no drug control; HepG2.2.15 cells; CLIA kit.
Type: cell-based, HBV
Experimental: HepG2.2.15 cells (Acs et al. Proc Natl Acad Sci USA, 84, (1987), 4641-4), a constitutively HBV-expressing cell line were cultured in DMEM+Glutamax-I medium (Invitrogen, Carlsbad, Calif., USA), supplemented with 10% fetal bovine serum (Invitrogen) and G418 (Invitrogen) at a final concentration of 200 mg/L and maintained in 5% CO2 at 37° C.
HepG2.2.15 cells were seeded in duplicate into white, 96-well plates at 1.5×10^4 cells/well. The cells were treated with a three-fold serial dilution series of the compounds in DMSO. The final DMSO concentration in all wells was 1% and DMSO was used as no drug control.
The HBsAg chemiluminescence immunoassay (CLIA) kit (Autobio Diagnostics Co., Zhengzhou, China, Catalog number: CL0310-2) was used to measure the levels of secreted HBV antigens semi-quantitatively. For the detection 50 μL/well culture supernatant was used and HBsAg was quantified using HBsAg chemiluminescence immunoassay (CLIA) kit (Autobio Diagnostics Co., Zhengzhou, China, Catalog number: CL0310-2), 50 μL of the supernatant was transferred to the CLIA assay plate and 50 μL of enzyme conjugate reagent was added into each well. The plates were sealed and gently agitated for 1 hour at room temperature. The supernatant-enzyme-mixture was discarded and wells were washed 6 times with 300 μL of PBS. The residual liquid was removed by plating the CLIA plate right side down on absorbent tissue paper. 25 μL of substrates A and B were added to each well. Luminance was measured using a luminometer (Mithras LB 940 Multimode Microplate Reader) after 10 minutes incubation. Dose-response curves were generated and the IC50 value was extrapolated by using the E-WorkBook Suite (ID Business Solutions Ltd., Guildford, UK).
The compounds of the present invention were tested for their capacity to inhibit HBsAg as described herein.

With `CCC1Cc2cc(OCC3CC3)c(OC)cc2-c2cc(=O)c(C(=O)O)cn21` (single isomer, unassigned; (-)) [Example 32, (−)-9-(cyclopropylmethoxy)-6-ethyl-10-methoxy-2-oxo-6,7-dihydrobenzo[a]quinolizine-3-carboxylic acid] as the compound, how does the pIC50 read?
The pIC50 was 7.12.

How did the pIC50 turn out when `CCC1Cc2cc(OCC(C)C)c(OC)cc2-c2cc(=O)c(C(=O)O)cn21` (single isomer, unassigned; (-)) [Example 35, (−)-6-ethyl-9-isobutoxy-10-methoxy-2-oxo-6,7-dihydrobenzo[a]quinolizine-3-carboxylic acid] was run?
Its pIC50 is 5.86.

With `CCOc1cc2c(cc1OC)-c1cc(=O)c(C(=O)O)cn1C(CC)C2` (single isomer, unassigned; (-)) [Example 38, (−)-9-ethoxy-6-ethyl-10-methoxy-2-oxo-6,7-dihydrobenzo[a]quinolizine-3-carboxylic acid] as the compound, how does the pIC50 read?
Its pIC50 is 5.74.

How did the pIC50 turn out when `CCC1Cc2cc(OCCCOC)c(OC)cc2-c2cc(=O)c(C(=O)O)cn21` (single isomer, unassigned; (-)) [Example 41, (−)-6-ethyl-10-methoxy-9-(3-methoxypropoxy)-2-oxo-6,7-dihydrobenzo[a]quinolizine-3-carboxylic acid] was run?
Its pIC50 is 5.24.

With `CCOCCOc1cc2c(cc1OC)-c1cc(=O)c(C(=O)O)cn1C(CC)C2` (single isomer, unassigned; (-)) [Example 44, (−)-9-(2-ethoxyethoxy)-6-ethyl-10-methoxy-2-oxo-6,7-dihydrobenzo[a]quinolizine-3-carboxylic acid] as the compound, how does the pIC50 read?
Its pIC50 is 5.26.

How did the pIC50 turn out when `CCC1Cc2cc(OCC(F)F)c(OC)cc2-c2cc(=O)c(C(=O)O)cn21` (single isomer, unassigned; (-)) [Example 47, (−)-9-(2,2-difluoroethoxy)-6-ethyl-10-methoxy-2-oxo-6,7-dihydrobenzo[a]quinolizine-3-carboxylic acid] was run?
The pIC50 was 5.47.

How did the pIC50 turn out when `CCC1Cc2cc(OCC3CCOCC3)c(OC)cc2-c2cc(=O)c(C(=O)O)cn21` (single isomer, unassigned; (-)) [Example 50, (−)-6-ethyl-10-methoxy-2-oxo-9-(tetrahydropyran-4-ylmethoxy)-6,7-dihydrobenzo[a]quinolizine-3-carboxylic acid] was run?
Its pIC50 is 6.40.

With `COc1cc2c(cc1OC)-c1cc(=O)c(C(=O)O)cn1C(C)C2` (single isomer, unassigned; (-)) [Example 68, (−)-9,10-dimethoxy-6-methyl-2-oxo-6,7-dihydrobenzo[a]quinolizine-3-carboxylic acid] as the compound, how does the pIC50 read?
Its pIC50 is 5.25.

`CCCOc1cc2c(cc1OC)-c1cc(=O)c(C(=O)O)cn1C(CC)C2` (single isomer, unassigned; (-)) [Example 80, (−)-6-ethyl-10-methoxy-2-oxo-9-propoxyl-6,7-dihydrobenzo[a]quinolizine-3-carboxylic acid] was tested. Which pIC50 did it give?
Its pIC50 is 6.72.

With `CCC1Cc2cc(OC)c(C3CC3)cc2-c2cc(=O)c(C(=O)O)cn21` (single isomer, unassigned; (-)) [Example 91, (−)-10-cyclopropyl-6-ethyl-9-methoxy-2-oxo-6,7-dihydrobenzo[a]quinolizine-3-carboxylic acid] as the compound, how does the pIC50 read?
Its pIC50 is 6.30.

With `COc1cc2c(cc1OC)-c1cc(=O)c(C(=O)O)cn1C(C(C)C)C2` (single isomer, unassigned; (-)) [Example 100, (−)-6-isopropyl-9,10-dimethoxy-2-oxo-6,7-dihydrobenzo[a]quinolizine-3-carboxylic acid] as the compound, how does the pIC50 read?
The pIC50 was 5.27.

How did the pIC50 turn out when `COc1cc2c(cc1OC)-c1cc(=O)c(C(=O)O)cn1C(CC(C)C)C2` (single isomer, unassigned; (-)) [Example 103, (−)-6-isobutyl-9,10-dimethoxy-2-oxo-6,7-dihydrobenzo[a]quinolizine-3-carboxylic acid] was run?
The pIC50 was 5.47.

How did the pIC50 turn out when `COCCOc1cc2c(cc1Cl)-c1cc(=O)c(C(=O)O)cn1C(CC(C)C)C2` (single isomer, unassigned; (-)) [Example 106, (−)-10-chloro-6-isobutyl-9-(2-methoxyethoxy)-2-oxo-6,7-dihydrobenzo[a]quinolizine-3-carboxylic acid] was run?
The pIC50 was 5.14.

`COCCOc1cc2c(cc1Cl)-c1cc(=O)c(C(=O)O)cn1C(C(C)C)C2` (single isomer, unassigned; (-)) [Example 109, (−)-10-chloro-6-isopropyl-9-(2-methoxyethoxy)-2-oxo-6,7-dihydrobenzo[a]quinolizine-3-carboxylic acid] was tested. Which pIC50 did it give?
Its pIC50 is 7.21.

With `CCC1Cc2cc(OCc3ccccc3)c(C)cc2-c2cc(=O)c(C(=O)O)cn21` (single isomer, unassigned; (-)) [Example 117, (−)-9-benzyloxy-6-ethyl-10-methyl-2-oxo-6,7-dihydrobenzo[a]quinolizine-3-carboxylic acid] as the compound, how does the pIC50 read?
The pIC50 was 6.04.

`COCCCOc1cc2c(cc1Cl)-c1cc(=O)c(C(=O)O)cn1C(C(C)C)C2` (single isomer, unassigned; (-)) [Example 122, (−)-10-chloro-6-isopropyl-9-(3-methoxypropoxy)-2-oxo-6,7-dihydrobenzo[a]quinolizine-3-carboxylic acid] was tested. Which pIC50 did it give?
Its pIC50 is 6.16.

With `COc1cc2c(cc1OCC(F)(F)F)CC(C(C)C)n1cc(C(=O)O)c(=O)cc1-2` (single isomer, unassigned; (-)) [Example 128, (−)-6-isopropyl-10-methoxy-2-oxo-9-(2,2,2-trifluoroethoxy)-6,7-dihydrobenzo[a]quinolizine-3-carboxylic acid] as the compound, how does the pIC50 read?
The pIC50 was 6.17.

How did the pIC50 turn out when `COCCOc1cc2c(cc1OC)-c1cc(=O)c(C(=O)O)cn1C(C(C)C)C2` (single isomer, unassigned; (-)) [Example 130, (−)-6-isopropyl-10-methoxy-9-(2-methoxyethoxy)-2-oxo-6,7-dihydrobenzo[a]quinolizine-3-carboxylic acid] was run?
The pIC50 was 5.81.

How did the pIC50 turn out when `COCCCOc1cc2c(cc1OC)-c1cc(=O)c(C(=O)O)cn1C(C(C)(C)C)C2` (single isomer, unassigned; (-)) [Example 133, (−)-6-tert-butyl-10-methoxy-9-(3-methoxypropoxy)-2-oxo-6,7-dihydrobenzo[a]quinolizine-3-carboxylic acid] was run?
The pIC50 was 6.48.

How did the pIC50 turn out when `COCCOc1cc2c(cc1OC)-c1cc(=O)c(C(=O)O)cn1C(C1(C)CC1)C2` (single isomer, unassigned; (-)) [Example 136, (−)-10-methoxy-9-(2-methoxyethoxy)-6-(1-methylcyclopropyl)-2-oxo-6,7-dihydrobenzo[a]quinolizine-3-carboxylic acid] was run?
Its pIC50 is 6.40.

With `COCCCOc1cc2c(c(Cl)c1F)-c1cc(=O)c(C(=O)O)cn1C(C(C)C)C2` (single isomer, unassigned; (-)) [Example 139, (−)-11-chloro-10-fluoro-6-isopropyl-9-(3-methoxypropoxy)-2-oxo-6,7-dihydrobenzo[a]quinolizine-3-carboxylic acid] as the compound, how does the pIC50 read?
The pIC50 was 6.89.

`COc1cc2c(cc1OCC(F)F)CC(C(C)C)n1cc(C(=O)O)c(=O)cc1-2` (single isomer, unassigned; (-)) [Example 143, (−)-9-(2,2-difluoroethoxy)-6-isopropyl-10-methoxy-2-oxo-6,7-dihydrobenzo[a]quinolizine-3-carboxylic acid] was tested. Which pIC50 did it give?
Its pIC50 is 6.72.

`COc1cc2c(cc1OCC(C)(C)CO)CC(C(C)C)n1cc(C(=O)O)c(=O)cc1-2` (single isomer, unassigned; (-)) [Example 146, (−)-9-(3-hydroxy-2,2-dimethyl-propoxy)-6-isopropyl-10-methoxy-2-oxo-6,7-dihydrobenzo[a]quinolizine-3-carboxylic acid] was tested. Which pIC50 did it give?
Its pIC50 is 6.28.

With `COc1cc2c(cc1OCC(C)(C)CO)CC(C(C)(C)C)n1cc(C(=O)O)c(=O)cc1-2` (single isomer, unassigned; (-)) [Example 151, (−)-6-tert-butyl-9-(3-hydroxy-2,2-dimethyl-propoxy)-10-methoxy-2-oxo-6,7-dihydrobenzo[a]quinolizine-3-carboxylic acid] as the compound, how does the pIC50 read?
The pIC50 was 6.80.

How did the pIC50 turn out when `COc1cc2c(cc1OCCCCCO)CC(C(C)(C)C)n1cc(C(=O)O)c(=O)cc1-2` (single isomer, unassigned; (-)) [Example 154, (−)-6-tert-butyl-9-(5-hydroxypentoxy)-10-methoxy-2-oxo-6,7-dihydrobenzo[a]quinolizine-3-carboxylic acid] was run?
The pIC50 was 6.92.

With `COc1cc2c(cc1OCCCCCCO)CC(C(C)(C)C)n1cc(C(=O)O)c(=O)cc1-2` (single isomer, unassigned; (-)) [Example 157, (−)-6-tert-butyl-9-(6-hydroxyhexoxy)-10-methoxy-2-oxo-6,7-dihydrobenzo[a]quinolizine-3-carboxylic acid] as the compound, how does the pIC50 read?
The pIC50 was 6.77.

How did the pIC50 turn out when `COc1cc2c(cc1OCCCCCCNC(=O)OC(C)(C)C)CC(C(C)(C)C)n1cc(C(=O)O)c(=O)cc1-2` (single isomer, unassigned; (-)) [Example 163, (−)-9-[6-(tert-butoxycarbonylamino)hexoxy]-6-tert-butyl-10-methoxy-2-oxo-6,7-dihydrobenzo[a]quinolizine-3-carboxylic acid] was run?
The pIC50 was 6.46.
